Assay results taken from patent US20220354825A1, “PHARMACEUTICAL COMPOSITION FOR PREVENTION OR TREATMENT OF INFLAMMATORY DISEASES COMPRISING NAPHTHOQUINONE DERIVATIVE” (LMITO THERAPEUTICS INC., priority 2019, published 2022).

Legend:
[1] = system: primary bone marrow-derived macrophages (BMDMs); assay: NAD+ measurement in macrophages after LPS/ATP; type: cell-based, C57BL/6 mouse; details: LPS/ATP + 1, 5, 10 μM compound
Method: (§1) The primary bone marrow-derived macrophages (BMDMs) isolated from C57BL/6 mouse were incubated in DMEM medium involving macrophage colony-stimulating factor (M-CSF; R&D Systems, 416-ML) during 3 to 5 days. NAD^+ production and NAD^+/NADH ratio were measured in isolated BMDMs through using NAD/NADH Assay Kit(ab65348) supplied by Abcam company. All assays were performed according to the manufacturer's product manual.
FIGS. 1 to 5 show NAD^+ changes in the macrophage when treated with compounds 6, 16, 17, 22 and 27 respectively (in order from left in the figure: Untreatment, LPS/ATP, LPS/ATP+1 μM compound, LPS/ATP+5 μM compound, and LPS/ATP+10 μM compound).

[2] = system: primary bone marrow-derived macrophages (BMDMs); assay: OCR (oxygen consumption rate) measurement, Seahorse XF24; type: cell-based, C57BL/6 mouse; details: macrophages after treatment of LPS and ATP
Method: The primary bone marrow-derived macrophages (BMDMs) isolated from C57BL/6 mouse were incubated in DMEM medium involving macrophage colony-stimulating factor (M-CSF; R&D Systems, 416-ML) during 3 to 5 days. OCR was measured using Seahorse XF24 Extracellular Flux Analyzer in isolated bone marrow-derived macrophages.

[3] = system: primary bone marrow-derived macrophages (BMDMs); assay: Mitochondrial reactive oxygen species measurement (MitoSox, FACS); type: cell-based, C57BL/6 mouse; details: LPS/ATP + 1, 5, 10 μM compound
Method: The primary bone marrow-derived macrophages (BMDMs) isolated from C57BL/6 mouse were incubated in DMEM medium involving macrophage colony-stimulating factor (M-CSF; R&D Systems, 416-ML) during 3 to 5 days. Isolated BMDMs were stained by 1 μM MitoSox (Molecular Probes M36008) for 15 min. After washing the cells into PBS and collecting the cells, mitochondrial reactive oxygen species was measured by FACS.
FIGS. 11 and 12 show mitochondrial reactive oxygen species changes in the macrophage when treated with compounds 6 and 27, respectively (in order from left in the figure: Untreatment, LPS/ATP, LPS/ATP+1 μM compound, LPS/ATP+5 μM compound, and LPS/ATP+10 μM compound).

[4] = system: DSS-induced acute colitis mouse model; assay: Efficacy in ulcerative colitis mouse model (DSS-induced acute colitis); type: in vivo, C57BL/6 female mouse; details: 5% DSS for 6 days
Method: DSS-induced acute colitis mouse model was prepared using 6-week-old C57BL/6 female mouse in the following method from Opal S M et al., Jama., 309(11):1154-1162(2013) and Hotchkiss R S et al., Journal of immunology., 176(9):5471-5477(2006).
The clinical score in colitis were measured daily for body weight, rectal bleeding, total bleeding loss, and fecal concentration during colitis induction.
For immunohistochemistry of tissue section, mouse spleen, lung and colon were fixed using 10% formalin and embedded in paraffin. Paraffin sections were cut to a thickness of 4 μm, and H&E(hematoxylin and eosin) staining was performed. The histopathological score was measured in accordance with the criteria described in Osuchowski M F, et al., Journal of Immunology, 177(3):1967-74(2006); and Liu W, et al., Cell Research, 25(6): 691-706(2015).
The sandwich ELISAs and MPO assay were performed according to conventional methods in this field. TNF-α, IL-6, IL-1β, IL-18 ELISA(sandwich ELISAs) were performed using BD OptEIA ELISA Kit and MPO assay was performed using MPO Activity assay kit(ab105136) of Abcam company.
The data obtained from independent experiment (means±SD) was analyzed by using two-tailed Student's t-test. The differences were considered significant in p<0.05. For survival comparison, the results were graphically described and analyzed according to kaplan-Meier survival analysis, that is, the product-limit method, using log-rank(Mantel-Cox) tests (Prism, version 5.0, GraphPad Software).

[5] = system: primary bone marrow-derived macrophages (BMDMs); assay: NAD+/NADH measurement in macrophages after LPS/ATP; type: cell-based, C57BL/6 mouse; details: LPS/ATP + 1, 5, 10 μM compound
Method: as §1, with “ratio was” for “ratio were”
FIGS. 6 to 10 show NAD^+/NADH ratio changes in the macrophage when treated with compounds 6, 16, 17, and 27 respectively (in order from left in the figure: Untreatment, LPS/ATP, LPS/ATP+1 μM compound, LPS/ATP+5 μM compound, and LPS/ATP+10 μM).

NQO1 = NQO1 (Homo sapiens, UniProt P15559); assay: In vitro NQO1 enzyme activity assay (cytochrome C reduction); type: biochemical; details: NQO1 2 ng
Method: In order to evaluate the enzymatic activities of compounds on NQO1, the experiments were performed as follows:
A compound to measure NQO1 enzyme activity was dissolved in DMSO to prepare a 10 mM stock solution, which was then diluted with DMSO to prepare a working solution at a concentration of 250 μM. For an enzyme reaction solution, 50 μL of 1.54 mM cytochrome C solution was added to 900 μL of 50 mM Tris-HCl (pH 7.5) solution containing 0.14% BSA, and then the prepared working solution at 250 μM was added. After adding 20 μL of 100 ng/ml NQO1 protein, […] solution was added so as to adjust the total volume to 1 mL, and then the change of absorbance was measured at 550 nm for 10 minutes. The change of absorbance was measured at 550 nm for 10 minutes using 1 mL cuvette. The reaction rate was observed through the increase in absorbance as cytochrome C was reduced at 550 nm for 10 minutes, to obtain an absorbance value, and the activity for NQO1 was measured as the reduced amount of cytochrome C (nmol reduced cytochrome C/min/μg NQO1 protein).
Absorption coefficient of Cytochrome C: 21.1 (μmol/mL)-1 cm^−1
Equipment=Cary 100 UV-Vis Spectrophotometer

[6] = system: primary bone marrow-derived macrophages (BMDMs); assay: ATP measurement in LPS-activated macrophages; type: cell-based, C57BL/6 mouse; details: LPS + 1, 5, 10 μM compound
Method: The primary bone marrow-derived macrophages (BMDMs) isolated from C57BL/6 mouse were incubated in DMEM medium involving macrophage colony-stimulating factor (M-CSF; R&D Systems, 416-ML) during 3 to 5 days. ATP content in the cell was measured through using ATP colorimetric/fluorometric kit after activation of macrophages by treatment of 100 ng/mL LPS in DMEM medium including […]. All assays were performed according to the manufacturer's product manual.
FIGS. 13 to 17 show the measurement of ATP amounts in the macrophage when treated with Compounds 6, 16, 17, 22 and 27 respectively (in order from left in the figure: Untreatment, LPS/ATP, LPS/ATP+1 μM compound, LPS/ATP+5 μM compound, and LPS/ATP+10 μM compound).

[7] = colon tissue homogenate, treated during 20 days
[8] = treated during 10 days, vs non-treated mouse

Chain of NQO1 (P15559 whole entry, species assumed): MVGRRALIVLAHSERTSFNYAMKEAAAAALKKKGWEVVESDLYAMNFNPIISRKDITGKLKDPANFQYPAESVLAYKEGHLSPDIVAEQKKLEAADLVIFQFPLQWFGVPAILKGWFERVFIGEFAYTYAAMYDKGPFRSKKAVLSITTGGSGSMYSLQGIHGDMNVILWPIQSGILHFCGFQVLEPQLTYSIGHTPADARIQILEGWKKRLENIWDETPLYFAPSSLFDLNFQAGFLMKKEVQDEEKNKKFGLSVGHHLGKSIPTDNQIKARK

SMILES: COc1nn(-c2ccccc2)c2c1C(=O)C(=O)c1ccccc1-2 [Compound 6]
- NAD+ production [1]: increased in dose-dependent manner
- overall mitochondrial OCR [2]: increased
- mitochondrial reactive oxygen species amounts [3]: decreased in dose-dependent manner
- MPO activity [4, 7]: decreased
- cytokine expressions (TNF-α, IL-6, IL-1β and IL-18, ELISA) [4, 7]: decreased
- expressions of sirtuin 1 and sirtuin 7 [4, 7]: significantly increased
- histological finding of colon tissue (immunohistochemistry, histological score, H&E) ([4]; treated during 7 days, vs non-treated colon tissue): significantly improved than non-treated colon tissue
- colitis clinic scores (body weight, stool consistency, bleeding combined) [4, 8]: significantly ameliorated compared with non-treated mouse
- degree of body weight loss [4, 8]: significantly slower than non-treated mouse
- survival rates ([4]; treated during 20 days, vs non-treated mouse): higher than non-treated mouse
- NAD+/NADH ratio [5]: increased in dose-dependent manner
- NQO1 Activity (NQO1; Compound 0.2 μM): 3782 nmol of reduced Cytochrome C/min/μg NQO1 Protein
- NQO1 Activity (NQO1; Compound 5 μM): 7706 nmol of reduced Cytochrome C/min/μg NQO1 Protein
- ATP amounts [6]: increased in dose-dependent manner
